From US9676715B2, “Bis-indolic derivatives, a process for preparing the same and their uses as a drug” (UNIVERSITE JOSEPH FOURIER, priority 2011, dated 2017)
Values after ≈ are worked out from the molar mass of the structure shown.

Key:
[1] = system: S. aureus ATCC 106414 (VISA); assay: MIC, microdilution method (9.1); assay type: cell-based, Staphylococcus aureus; settings: Staphylococcus aureus, read after 18 h, read-out: MIC
Method: (§1) The microdilution method recommended by the Clinical and Laboratory Standard Institute [M07-A8, Vol. 29, No. 2] was used. The activity of indolic compounds was tested against 29 bacterial strains belonging to 17 different species and 12 different genera (Staphylococcus, Streptococcus, Enterococcus, Listeria, Bacillus, Haemophilus, Escherichia, Klebsiella, Enterobacter, Serratia, Pseudomonas, and Acinetobacter). Bacterial inocula were prepared in Mueller Hinton broth (MH2, bioMérieux, Marcy L'Etoile, France), supplemented with 10% sheep blood for fastidious species (i.e., Streptococcus pneumoniae and Haemophilus influenzae). They were dispensed in 96 well microtiter plates (5×10^5 CFU/ml of final inoculum). Indolic compounds were added to the wells as to obtain two-fold serial concentrations (0.50-128 mg/L of final concentrations). Plates were incubated at 37° C. in ambient air, or at 37° C. in 5% CO2 enriched atmosphere for fastidious species. […] Drug-free cultures served as growth controls. Cultures receiving gentamicin, ciprofloxacin or cefotaxime served as positive controls.

S. aureus ATCC 25923 = assay: MIC, microdilution method (9.1); assay type: cell-based, Staphylococcus aureus; settings: Staphylococcus aureus, ATCC25923, read after 18 h, read-out: MIC
Method: as §1

S. aureus ATCC 29213 = assay: MIC, microdilution method (9.1); assay type: cell-based, Staphylococcus aureus; settings: Staphylococcus aureus, ATCC29213, read after 18 h, read-out: MIC
Method: as §1

[2] = system: S. aureus ATCC 33592 (MRSA); assay: MIC, microdilution method (9.1); assay type: cell-based, Staphylococcus aureus; settings: Staphylococcus aureus, read after 18 h, read-out: MIC
Method: as §1

S. aureus ATCC 6538 = assay: MIC, microdilution method (9.1); assay type: cell-based, Staphylococcus aureus; settings: Staphylococcus aureus, ATCC6538, read after 18 h, read-out: MIC
Method: as §1

S. aureus ATCC 9144 = assay: MIC, microdilution method (9.1); assay type: cell-based, Staphylococcus aureus; settings: Staphylococcus aureus, ATCC9144, read after 18 h, read-out: MIC
Method: as §1

S. aureus CIP 103428 = assay: MIC, microdilution method (9.1); assay type: cell-based, Staphylococcus aureus; settings: Staphylococcus aureus, CIP103428, read after 18 h, read-out: MIC
Method: as §1

[3] = system: S. aureus CIP 65.25 (MRSA); assay: MIC, microdilution method (9.1); assay type: cell-based, Staphylococcus aureus; settings: Staphylococcus aureus, read after 18 h, read-out: MIC
Method: as §1

S. aureus CIP 65.6 = assay: MIC, microdilution method (9.1); assay type: cell-based, Staphylococcus aureus; settings: Staphylococcus aureus, CIP65, read after 18 h, read-out: MIC
Method: as §1

[4] = system: S. epidermidis ATCC 12228; assay: MIC, microdilution method (9.1); assay type: cell-based, Staphylococcus epidermidis; settings: Staphylococcus epidermidis, ATCC12228, read after 18 h, read-out: MIC
Method: as §1

[5] = system: S. epidermidis CIP 103627; assay: MIC, microdilution method (9.1); assay type: cell-based, Staphylococcus epidermidis; settings: Staphylococcus epidermidis, CIP103627, read after 18 h, read-out: MIC
Method: as §1

S. epidermidis CIP 81.55 = assay: MIC, microdilution method (9.1); assay type: cell-based, Staphylococcus epidermidis; settings: Staphylococcus epidermidis, CIP81, read after 18 h, read-out: MIC
Method: as §1

S. pneumoniae ATCC 6303 = assay: MIC, microdilution method (9.1); assay type: cell-based, Streptococcus pneumoniae; settings: Streptococcus pneumoniae, ATCC6303, 10% sheep blood, 5% CO2, 18 h, read-out: MIC
Method: as §1

[6] = system: S. agalactiae (group B) ATCC 12400; assay: MIC, microdilution method (9.1); assay type: cell-based, Streptococcus agalactiae; settings: Streptococcus agalactiae, ATCC12400, 18 h, read-out: MIC
Method: as §1

[7] = system: S. pyogenes (group A) CIP 104226; assay: MIC, microdilution method (9.1); assay type: cell-based, Streptococcus pyogenes; settings: Streptococcus pyogenes, CIP104226, 18 h, read-out: MIC
Method: as §1

S. mitis CIP 103335 = assay: MIC, microdilution method (9.1); assay type: cell-based, Streptococcus mitis; settings: Streptococcus mitis, CIP103335, 18 h, read-out: MIC
Method: as §1

E. faecium CIP 54.32 = assay: MIC, microdilution method (9.1); assay type: cell-based, Enterococcus faecium; settings: Enterococcus faecium, CIP54, 18 h, read-out: MIC
Method: as §1

E. faecalis ATCC 29212 = assay: MIC, microdilution method (9.1); assay type: cell-based, Enterococcus faecalis; settings: Enterococcus faecalis, ATCC29212, 18 h, read-out: MIC
Method: as §1

[8] = system: Acinetobacter baumanii ATCC 19606; assay: MIC, microdilution method (9.1); assay type: cell-based; settings: Acinetobacter baumannii, ATCC19606, 18 h, read-out: MIC
Method: as §1

[9] = system: Bacillus subtilis CIP 5262; assay: MIC, microdilution method (9.1); assay type: cell-based; settings: CIP5262, 18 h, read-out: MIC
Method: as §1

[10] = system: Enterobacter cloacae ATCC13047; assay: MIC, microdilution method (9.1); assay type: cell-based; settings: 18 h
Method: as §1

[11] = system: Escherichia coli ATCC 25922; assay: MIC, microdilution method (9.1); assay type: cell-based; settings: ATCC25922, 18 h
Method: as §1

[12] = system: Haemophilus influenzae ATCC 49766; assay: MIC, microdilution method (9.1); assay type: cell-based; settings: ATCC49766; Haemophilus influenzae ATCC 49766; 10% sheep blood, 5% CO2; 18 h; read-out: MIC
Method: as §1

[13] = system: Klebsiella pneumoniae API ATCC 35657; assay: MIC, microdilution method (9.1); assay type: cell-based; settings: ATCC35657, 18 h, read-out: MIC
Method: as §1

[14] = system: Listeria innocua CIP 80.11; assay: MIC, microdilution method (9.1); assay type: cell-based; settings: CIP80, 18 h, read-out: MIC
Method: as §1

[15] = system: Pseudomonas aeruginosa CIP 5933; assay: MIC, microdilution method (9.1); assay type: cell-based; settings: CIP5933, 18 h, read-out: MIC
Method: as §1

S. pneumoniae ATCC 49619 = assay: MIC, microdilution method (9.1); assay type: cell-based; settings: Streptococcus pneumoniae, ATCC49619, 10% sheep blood, 5% CO2, 18 h
Method: as §1

[16] = system: Serratia marcescens CIP 103551; assay: MIC, microdilution method (9.1); assay type: cell-based; settings: CIP103551, 18 h
Method: as §1

S. aureus SA-1199B = assay: MIC, microdilution method (9.1); assay type: cell-based, Staphylococcus aureus; settings: Staphylococcus aureus, SA1199B, 18 h
Method: as §1

[17] = system: HCT116 (human colon tumor); assay: In vitro cytotoxicity; assay type: cell-based; settings: read-out: % of cellular growth inhibition; for inhibition at 10 µM: HCT-116, 10^−5 M; for inhibition at 1 µM: HCT-116, 10^−6 M
Method: (§2) In vitro cytotoxicity was assayed on three cell lines—KB (human mouth carcinoma), MCR5 (human lung fibroblast) and HCT116 (human colon tumor). Results are presented in table IV as % of cellular growth inhibition in presence of 10^−5 M and 10^−6 M of the tested bis-indolic derivatives.

[18] = system: KB (human mouth carcinoma); assay: In vitro cytotoxicity; assay type: cell-based; settings: read-out: % of cellular growth inhibition; for inhibition at 10 µM: 10^−5 M; for inhibition at 1 µM: 10^−6 M
Method: as §2

[19] = system: MRC5 (human lung fibroblast); assay: In vitro cytotoxicity; assay type: cell-based; settings: read-out: % of cellular growth inhibition; for inhibition at 10 µM: 10^−5 M; for inhibition at 1 µM: 10^−6 M
Method: as §2

[20] = system: HCT116 (human colon tumor); assay: In vitro cytotoxicity; assay type: cell-based; settings: HCT-116, HCT116, from 100 μM to 0.005 μM in DMSO, duplicate

Row | SMILES | MIC [1] | MIC (S. aureus ATCC 25923) | MIC (S. aureus ATCC 29213) | MIC [2] | MIC (S. aureus ATCC 6538) | MIC (S. aureus ATCC 9144) | MIC (S. aureus CIP 103428) | MIC [3] | MIC (S. aureus CIP 65.6) | MIC [4] | MIC [5] | MIC (S. epidermidis CIP 81.55) | MIC (S. aureus SA-1199B) | inhibition at 10 µM [17] | inhibition at 1 µM [17] | inhibition at 10 µM [18] | inhibition at 1 µM [18] | inhibition at 10 µM [19] | inhibition at 1 µM [19] | other results
1 | CC(NC(=O)c1c[nH]c2ccc(F)cc12)c1c[nH]c2ccc(Br)cc12 (centres unmarked) [Compound 5, N-(1-(5-bromo-1H-indol-3-yl)ethyl)-5-fluoro-1H-indole-3-carboxamide] | 16 µg/mL (≈ 40 µM) | 16 µg/mL (≈ 40 µM) | 16 µg/mL (≈ 40 µM) | 16 µg/mL (≈ 40 µM) | 16 µg/mL (≈ 40 µM) | 16 µg/mL (≈ 40 µM) | 16 µg/mL (≈ 40 µM) | 16 µg/mL (≈ 40 µM) | > 32 µg/mL | 16 µg/mL (≈ 40 µM) | 16 µg/mL (≈ 40 µM) | 16 µg/mL (≈ 40 µM) |  |  |  |  |  |  |  | 
2 | O=C(NC(C(=O)NCCO)c1c[nH]c2ccc(Br)cc12)c1c[nH]c2ccc(Br)cc12 (centres unmarked) [Compound 14, 5-Bromo-N-(1-(5-bromo-1H-indol-3-yl)-2-((2-hydroxyethyl)amino)-2-oxoethyl)-1H-indole-3-carboxamide] | 32 µg/mL (≈ 59.9 µM) | 32 µg/mL (≈ 59.9 µM) | 32 µg/mL (≈ 59.9 µM) | 32 µg/mL (≈ 59.9 µM) | 32 µg/mL (≈ 59.9 µM) | 32 µg/mL (≈ 59.9 µM) | 32 µg/mL (≈ 59.9 µM) | 32 µg/mL (≈ 59.9 µM) | > 32 µg/mL | 32 µg/mL (≈ 59.9 µM) | 32 µg/mL (≈ 59.9 µM) | 32 µg/mL (≈ 59.9 µM) |  |  |  |  |  |  |  | MIC (S. pneumoniae ATCC 6303): 128 µg/mL (≈ 240 µM); MIC [6]: 64 µg/mL (≈ 120 µM); MIC [7]: 64 µg/mL (≈ 120 µM); MIC (S. mitis CIP 103335): > 128 µg/mL; MIC (E. faecium CIP 54.32): > 128 µg/mL; MIC (E. faecalis ATCC 29212): > 128 µg/mL; MIC [8]: > 32 µg/mL; MIC [9]: > 128 µg/mL; MIC [10]: > 32 µg/mL; MIC [11]: > 32 µg/mL; MIC [12]: > 128 µg/mL; MIC [13]: > 32 µg/mL; MIC [14]: > 128 µg/mL; MIC [15]: > 32 µg/mL; MIC (S. pneumoniae ATCC 49619): 64 µg/mL (≈ 120 µM); MIC [16]: > 32 µg/mL
3 | CC(C)(C)OC(=O)NCC(NC(=O)c1c[nH]c2cc(Br)ccc12)c1c[nH]c2ccccc12 (centres unmarked) [Compound 3e, tert-Butyl (2-(1H-indol-3-yl)-2-(6-bromo-1H-indolyl-3-carboxamido)ethyl)carbamate] | 8 µg/mL (≈ 16.1 µM) | 16 µg/mL (≈ 32.2 µM) | 8 µg/mL (≈ 16.1 µM) | 32 µg/mL (≈ 64.3 µM) | 8 µg/mL (≈ 16.1 µM) | 8 µg/mL (≈ 16.1 µM) | 8 µg/mL (≈ 16.1 µM) | 8 µg/mL (≈ 16.1 µM) | 16 µg/mL (≈ 32.2 µM) | 8 µg/mL (≈ 16.1 µM) | 128 µg/mL (≈ 257 µM) | 8 µg/mL (≈ 16.1 µM) | 8 µg/mL (≈ 16.1 µM) | 92 ± 1% | 2% | 99 ± 1% | 0% | 92 ± 6% | 0% | 
4 | CC(C)(C)OC(=O)NCC(NC(=O)c1c[nH]c2ccccc12)c1c[nH]c2ccc(Br)cc12 (centres unmarked) [Compound 3b, tert-Butyl (2-(5-bromo-1H-indol-3-yl)-2-(1H-indole-3-carboxamido)ethyl)carbamate] | 8 µg/mL (≈ 16.1 µM) | 8 µg/mL (≈ 16.1 µM) | 8 µg/mL (≈ 16.1 µM) | 8 µg/mL (≈ 16.1 µM) | 8 µg/mL (≈ 16.1 µM) | 8 µg/mL (≈ 16.1 µM) | 8 µg/mL (≈ 16.1 µM) | 8 µg/mL (≈ 16.1 µM) | 8 µg/mL (≈ 16.1 µM) | 8 µg/mL (≈ 16.1 µM) | 8 µg/mL (≈ 16.1 µM) | 8 µg/mL (≈ 16.1 µM) | 8 µg/mL (≈ 16.1 µM) | 30 ± 2% | 0% | 41 ± 6% | 0% | 8 ± 5% | 7% | IC50 ([20]; first value): 15 µM; IC50 ([20]; second value): 11.2 µM
